From patent US9701664B2, “Fused 1,4-dihydrodioxin derivatives as inhibitors of heat shock transcription factor 1” (Cancer Research Technology Limited, priority 2013, dated 2017)

Test system: HSP72 in SK-OV-3 cells
Assay: Cell-based ELISA (Cellisa) assay, SK-OV-3 cells: inhibition of 17-AAG-induced HSP72
Settings: SK-OV-3 cells (Examples 169-218)
Description: U2OS cells (5-8×10^4 cells/mL) or SK-OV-3 cells (5-8×10^4 cells/mL) were seeded into 96-well plates and incubated at 37° C. for 48 h. Compounds were then added at a range of concentrations and incubated for 1 h before addition of 17-AAG (250 nM). Cells were then incubated for 18 h. The medium was removed washed 2× with PBS and cells were then fixed with fixing solution (4% paraformaldehyde, 0.3% TritonX-100 in PBS) for 30 min at 4° C. The plates were then washed 2× with PBS before blocking with 5% milk for 30 min at 37° C. After washing the plates 4× with 0.1% Tween-20/deionised water, HSP72 antibody (SPA-810, Enzo Life) was added for 1.5 h at 37° C. Following 4× washes, the plates were incubated with europium-labelled anti-mouse antibody (0.6 ug/ml) in Delfia assay buffer (Perkin Elmer) for 1 h at 37° C. After washing the plates, Delfia enhancement solution was added, shaken for 10 min before reading in the Envision plate reader (Perkin-Elmer) with excitation at 340 nm and emission at 615 nm. The plates were washed again before protein determination using the bicinchoninic acid assay (BCA assay, Pierce Biotechnology). The europium counts were normalised for the amount of protein in each well. The 50% inhibitory concentration value of the compound was then calculated.

| Compound | IC50 (Homo sapiens) | IC50 |
| --- | --- | --- |
| CCN1CCN(Cc2ccc3cc(C(=O)Nc4cc(NC(=O)c5ccc6c(c5)OCCO6)ccc4F)ccc3n2)CC1 [Example 169, N-(5-(2,3-dihydrobenzo[b][1,4]dioxine-6-carboxamido)-2-fluorophenyl)-2-((4-ethylpiperazin-1-yl)methyl)quinoline-6-carboxamide] | 56 nM | – |
| O=C(Nc1ccc(Cl)c(NC(=O)c2ccc3nc(OCCN4CCCC4)ccc3c2)c1)c1ccc2c(c1)OCCO2 [Example 211, N-(2-chloro-5-(2,3-dihydrobenzo[b][1,4]dioxine-6-carboxamido)phenyl)-2-(2-(pyrrolidin-1-yl)ethoxy)quinoline-6-carboxamide] | 73 nM | – |
| CCN1CCN(Cc2ccc3cc(C(=O)Nc4cc(NC(=O)c5ccc6c(c5)OCCO6)ccc4C)ccc3n2)CC1 [Example 204, N-(5-(2,3-dihydrobenzo[b][1,4]dioxine-6-carboxamido)-2-methylphenyl)-2-((4-ethylpiperazin-1-yl)methyl)quinoline-6-carboxamide] | 56 nM | – |
| CN1CCN(Cc2ccc3cc(C(=O)Nc4cc(NC(=O)c5ccc6c(c5)OCCO6)ccc4Cl)ccc3n2)CC1 [Example 195, N-(2-chloro-5-(2,3-dihydrobenzo[b][1,4]dioxine-6-carboxamido)phenyl)-2-((4-methylpiperazin-1-yl)methyl)quinoline-6-carboxamide] | 66 nM | – |
| O=C(Nc1ccc(F)c(NC(=O)c2ccc3nc(OCCCN4CCCC4)ccc3c2)c1)c1ccc2c(c1)OCCO2 [Example 187, N-(5-(2,3-dihydrobenzo[b][1,4]dioxine-6-carboxamido)-2-fluorophenyl)-2-(3-(pyrrolidin-1-yl)propoxy)quinoline-6-carboxamide] | 10 nM | – |
| O=C(Nc1ccc(F)c(NC(=O)c2ccc3nc(CN4CCCC4)ccc3c2)c1)c1ccc2c(c1)OCCO2 [Example 170, N-(5-(2,3-dihydrobenzo[b][1,4]dioxine-6-carboxamido)-2-fluorophenyl)-2-(pyrrolidin-1-ylmethyl)quinoline-6-carboxamide] | 379 nM | – |
| CCN1CCN(Cc2ccc3cc(C(=O)Nc4cc(NC(=O)c5ccc6c(c5)OCCO6)ccc4Cl)ccc3n2)CC1 [Example 196, N-(2-chloro-5-(2,3-dihydrobenzo[b][1,4]dioxine-6-carboxamido)phenyl)-2-((4-ethylpiperazin-1-yl)methyl)quinoline-6-carboxamide] | 48 nM | – |
| O=C(Nc1ccc(Cl)c(NC(=O)c2ccc3nc(CN4CCN(C5CC5)CC4)ccc3c2)c1)c1ccc2c(c1)OCCO2 [Example 194, N-(2-chloro-5-(2,3-dihydrobenzo[b][1,4]dioxine-6-carboxamido)phenyl)-2-((4-cyclopropylpiperazin-1-yl)methyl)quinoline-6-carboxamide] | 213 nM | – |
| CCN1CCN(Cc2ccc3cc(C(=O)Nc4cc(NC(=O)c5ccc6c(c5)OCCO6)ccc4Br)ccc3n2)CC1 [Example 215, N-(2-bromo-5-(2,3-dihydrobenzo[b][1,4]dioxine-6-carboxamido)phenyl)-2-((4-ethylpiperazin-1-yl)methyl)quinoline-6-carboxamide] | 39 nM | – |
| C[C@H]1CCCN1Cc1ccc2cc(C(=O)Nc3cc(NC(=O)c4ccc5c(c4)OCCO5)ccc3F)ccc2n1 [Example 175, (S)—N-(5-(2,3-dihydrobenzo[b][1,4]dioxine-6-carboxamido)-2-fluorophenyl)-2-((2-methylpyrrolidin-1-yl)methyl)quinoline-6-carboxamide] | 647 nM | – |
| C=Cc1ccc(NC(=O)c2ccc3c(c2)OCCO3)cc1NC(=O)c1ccc2nc(C)ccc2c1 [Example 210, N-(5-(2,3-dihydrobenzo[b][1,4]dioxine-6-carboxamido)-2-vinylphenyl)-2-methylquinoline-6-carboxamide] | 419 nM | – |
| 2-((4-(sec-butyl)piperazin-111)methyl)-N-(5-(2,3-dihydrobenzo[b][1,4]dioxine-6-carboxamido)-2-fluorophenyl)quinoline-6-carboxamide [Example 179] | – | 19 nM |
| CC1(C)CN(Cc2ccc3cc(C(=O)Nc4cc(NC(=O)c5ccc6c(c5)OCCO6)ccc4F)ccc3n2)C1 [Example 183, N-(5-(2,3-dihydrobenzo[b][1,4]dioxine-6-carboxamido)-2-fluorophenyl)-2-((3,3-dimethylazetidin-1-yl)methyl)quinoline-6-carboxamide] | 131 nM | – |
| O=C(Nc1ccc(Cl)c(NC(=O)c2ccc3nc(CN4CCCC4)ccc3c2)c1)c1ccc2c(c1)OCCO2 [Example 198, N-(2-chloro-5-(2,3-dihydrobenzo[b][1,4]dioxine-6-carboxamido)phenyl)-2-(pyrrolidin-1-ylmethyl)quinoline-6-carboxamide] | 173 nM | – |
| CC1CN(Cc2ccc3cc(C(=O)Nc4cc(NC(=O)c5ccc6c(c5)OCCO6)ccc4F)ccc3n2)C1 [Example 182, N-(5-(2,3-dihydrobenzo[b][1,4]dioxine-6-carboxamido)-2-fluorophenyl)-2-((3-methylazetidin-1-yl)methyl)quinoline-6-carboxamide] | 232 nM | – |
